These results are taken from ChEMBL document CHEMBL5247643, “Discovery and Characterization of BAY-805, a Potent and Selective Inhibitor of Ubiquitin-Specific Protease USP21” (J Med Chem, 2023).

In test [1] the target is T1, Ubiquitin carboxyl-terminal hydrolase 2 (Homo sapiens, UniProt O75604).
T1 sequence (O75604 whole entry): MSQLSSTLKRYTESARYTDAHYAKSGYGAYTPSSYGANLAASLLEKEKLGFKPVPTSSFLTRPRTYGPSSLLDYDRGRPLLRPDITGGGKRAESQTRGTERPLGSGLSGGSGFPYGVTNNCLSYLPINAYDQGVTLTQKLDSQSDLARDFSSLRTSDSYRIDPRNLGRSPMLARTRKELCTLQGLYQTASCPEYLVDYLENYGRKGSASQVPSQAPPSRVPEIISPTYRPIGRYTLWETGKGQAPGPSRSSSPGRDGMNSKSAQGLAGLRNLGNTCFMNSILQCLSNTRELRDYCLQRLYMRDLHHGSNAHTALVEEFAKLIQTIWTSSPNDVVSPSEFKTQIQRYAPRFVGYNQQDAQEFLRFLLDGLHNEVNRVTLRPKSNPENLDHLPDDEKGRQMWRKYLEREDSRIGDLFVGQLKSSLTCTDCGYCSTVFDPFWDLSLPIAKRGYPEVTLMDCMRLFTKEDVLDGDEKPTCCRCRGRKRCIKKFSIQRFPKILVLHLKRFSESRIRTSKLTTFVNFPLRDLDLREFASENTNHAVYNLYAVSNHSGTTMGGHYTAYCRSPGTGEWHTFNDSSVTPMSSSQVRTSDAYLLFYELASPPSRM
Kind of test: Inhibition of human His-tagged USP2 (259 to 605 residues) using ubiquitin rhodamine 110 110 as substrate preincubated for 15 to 20 mins followed by enzyme addition and measured after 25 mins by fluorometric assay.

Test [2] addresses T2, Ubiquitin carboxyl-terminal hydrolase 21 (Homo sapiens, UniProt Q9UK80).
T2 sequence (Q9UK80 whole entry): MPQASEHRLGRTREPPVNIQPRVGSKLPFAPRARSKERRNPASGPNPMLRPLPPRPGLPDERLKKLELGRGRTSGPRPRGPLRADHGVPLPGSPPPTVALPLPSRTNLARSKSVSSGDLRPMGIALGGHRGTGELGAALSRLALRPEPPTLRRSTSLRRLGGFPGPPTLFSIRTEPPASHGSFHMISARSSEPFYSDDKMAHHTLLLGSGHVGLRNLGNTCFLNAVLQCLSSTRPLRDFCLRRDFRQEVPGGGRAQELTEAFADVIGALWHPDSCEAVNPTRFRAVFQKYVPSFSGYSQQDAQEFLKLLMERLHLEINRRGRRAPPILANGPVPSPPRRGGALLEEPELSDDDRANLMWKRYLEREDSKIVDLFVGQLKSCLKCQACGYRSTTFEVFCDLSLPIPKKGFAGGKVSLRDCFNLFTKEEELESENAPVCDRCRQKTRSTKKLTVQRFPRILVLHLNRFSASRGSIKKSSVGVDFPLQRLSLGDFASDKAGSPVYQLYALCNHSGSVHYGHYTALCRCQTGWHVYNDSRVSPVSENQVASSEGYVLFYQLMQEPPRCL
Kind of test: Inhibition of human full length USP21 using Btn-Ahx-PNIRFLD-K(Ubi)-LPQQT-GD-amide as substrate preincubated for 15 to 20 mins followed by substrate addition and measured after 25 mins by HTRF assay. A general note: Time-resolved FRET reads energy transfer from a long-lived donor to a nearby acceptor.

The next test deals with Jurkat. Kind of test: Antiproliferative activity against human Jurkat cells assessed as reduction in cell viability up to 30 uM incubated for 72 hrs by CellTiter-Glo luminescent assay. Type of test: functional, cell-based.
In a further test the test system is A549. Kind of test: Antiproliferative activity against human A549 cells assessed as reduction in cell viability up to 30 uM incubated for 72 hrs by CellTiter-Glo luminescent assay. Type of test: functional, cell-based.
The next test has as its system MDA-MB-231. Kind of test: Antiproliferative activity against human MDA-MB-231 cells assessed as reduction in cell viability up to 30 uM incubated for 72 hrs by CellTiter-Glo luminescent assay. It is filed as functional, cell-based. (Cellular ATP, detected with luciferase, serves as a proxy for viable cell number.)
The next test relates to U2OS. The test can be described thus: Antiproliferative activity against human U2OS cells assessed as reduction in cell viability up to 30 uM incubated for 72 hrs by CellTiter-Glo luminescent assay. Type of test: functional, cell-based.
Another test relates to MOLM-13. The test can be described thus: Antiproliferative activity against human MOLM-13 cells assessed as reduction in cell viability up to 30 uM incubated for 72 hrs by CellTiter-Glo luminescent assay. Type of test: functional, cell-based.

Active and inactive are the calls of the source. The calls are words filed in the database; no cut-off is given here.

The compound `COCC(NC(=O)C1CCCC1)C(=O)Nc1nnc(Cc2ccc([N+](=O)[O-])cc2)s1` (racemic) came in with an IC50 in test [1] of 25 µM.

In test [2], `N#Cc1ccc(Cc2nnc(NC(=O)[C@H](NC(=O)C3(C(F)(F)F)CCCCC3)C3CCCC3)s2)cc1` registered an IC50 of 0.012 µM.

For `CC(C)C[C@@H](NC(=O)C1(C(F)(F)F)CCCCC1)C(=O)Nc1nnc(Cc2ccc(C#N)cc2)s1`, the result in the test on Jurkat, with A549, with MDA-MB-231, in the test on U2OS and in the test on MOLM-13 was inactive.

In general, IC50 refers to the concentration needed to halve the response being measured. Higher therefore signals weaker potency.
